From US20240148720A1, “Use of Histamine Antagonists and Glucocorticoid for Treating and Preventing Neurodegenerative Diseases” (City University of Hong Kong, priority 2022, published 2024)
Where a name gives a salt, the structure may show the parent alone.

Key:
[1] = cited from earlier work
[2] = molecular target: histamine H4 receptor (Homo sapiens, UniProt Q9H3N8); conditions: cited from earlier work
[3] = cited from earlier work; remark: listed apart in the source
[4] = rats; 100 mg/kg; cited from earlier work
[5] = test system: APP/PS1 mice; assay: Y-maze test, APP/PS1 mice; conditions: 8-month-old APP/PS1 mice
[6] = test system: 3xTg-AD mice; assay: Y-maze test, 3xTg-AD mice; conditions: 17-month-old 3xTg-AD mice; VUF6002 2.5 mg/kg daily about 3 months; FIG. 3B
[7] = test system: 3xTg-AD mice; assay: Barnes maze test, 3xTg-AD mice; conditions: 17-month-old 3xTg-AD mice, VUF6002 2.5 mg/kg daily about 3 months
[8] = test system: APP/PS1 mice; assay: Morris Water Maze test, APP/PS1 mice; conditions: 8-month-old APP/PS1 mice; for escape latency to find the hidden platform: FIG. 6C
[9] = test system: APP/PS1 mice; assay: Novel object recognition test, APP/PS1 mice; conditions: 8-month-old APP/PS1 mice; VUF6002 2.5 mg/kg i.p. daily 1 month; vs vehicle; FIG. 2C
[10] = test system: 3xTg-AD mice; assay: Novel object recognition test, 3xTg-AD mice; conditions: 17-month-old 3xTg-AD mice; VUF6002 2.5 mg/kg daily about 3 months; FIG. 3C
[11] = test system: STZ-treated mice; assay: Barnes maze test, streptozocin-induced sporadic AD mouse model; conditions: STZ ICV mice, VUF6002 2.5 mg/kg i.p. 21 days
[12] = test system: microglia; assay: Anti-IBA-1 immunostaining of microglia in hippocampal CA1 of 3xTg-AD mice; conditions: 17-month-old 3xTg-AD mice
[13] = test system: STZ-treated mice; assay: Y-maze spontaneous alternation test, streptozocin-induced sporadic AD mouse model; conditions: STZ ICV mice; VUF6002 2.5 mg/kg i.p. daily for 21 days; FIG. 1B
[14] = test system: hyperphosphorylated Tau; assay: Anti-AT8 immunostaining of hyperphosphorylated Tau in hippocampus of 3xTg-AD mice; conditions: 17-month-old 3xTg-AD mice

Sequence of histamine H4 receptor (Q9H3N8 whole entry, species assumed): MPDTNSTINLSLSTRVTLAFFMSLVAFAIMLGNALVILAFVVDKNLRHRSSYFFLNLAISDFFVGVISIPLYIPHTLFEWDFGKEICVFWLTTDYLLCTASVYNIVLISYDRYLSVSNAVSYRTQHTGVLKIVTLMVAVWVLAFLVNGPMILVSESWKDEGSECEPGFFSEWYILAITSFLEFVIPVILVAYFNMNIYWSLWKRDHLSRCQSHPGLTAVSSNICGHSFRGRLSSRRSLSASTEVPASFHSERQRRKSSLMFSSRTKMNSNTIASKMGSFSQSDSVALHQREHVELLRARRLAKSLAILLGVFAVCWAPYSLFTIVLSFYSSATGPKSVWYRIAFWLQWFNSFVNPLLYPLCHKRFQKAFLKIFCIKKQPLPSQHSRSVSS

For `CC(C)c1cc(N2CC[C@@H](N)C2)nc(N)n1` [JNJ39758979], the “severe side effects in humans” value [1] is given as “may induces agranulocytosis in humans”.
For `CN1CCN2c3ccccc3Cc3ccccc3C2C1` (stereo not shown) [Mianserin], the “binding to histamine receptors” value [2] is given as “can bind to histamine H1, H3, and H4 receptors”.
In the case of `S=C(NC1CCCCC1)N1CCC(c2cnc[nH]2)CC1` [Thioperamide], the “binding to histamine receptors” value [2] is given as “can bind to histamine H3 and H4 receptors”.
In the case of `CN1CCN(C(=O)c2nc3cc(Cl)ccc3[nH]2)CC1` [VUF6002, 1-[(5-chloro-1H-benzimidazol-2-yl)carbonyl]-4-methylpiperazine maleate], the “severe side effect on animal models” value [3] is given as “has not been reported to have a severe side effect”, the anti-inflammation effect [4] is given as “revealed an anti-inflammation effect” and the spontaneous alternation rate ([5]; VUF6002 2.5 mg/kg i.p. daily 1 month, vs vehicle, FIG. 2B) is given as “significantly elevates”. For the same molecule, the “short-term memory, performance on Y-maze” value [6] was “completely reverse the memory deficit”, the “performance during the training phase of Barnes Maze test” value ([7]; FIG. 3D) was “marked improvement” and the “primary errors to find the target hole, probe test” value ([7]; vs vehicle, FIG. 3E) was “make fewer errors to find the target hole”. For the same molecule, the “time spent in the target quadrant, probe test” value (“time spent … probe test” below) ([7]; vs vehicle, FIG. 3F) was “spend more time in the target quadrant”, the “long-term spatial memory during the training phase” value ([8]; VUF6002 2.5 mg/kg i.p. daily 1 month, FIG. 2D) was “markedly improved” and the “number of platform crosses, probe test” value ([8]; VUF6002 2.5 mg/kg i.p. daily 1 month, vs vehicle, FIG. 2E) was “make more attempts to swim across the original location of the platform”. For the same molecule, the “time spent … probe test” value ([8]; VUF6002 2.5 mg/kg i.p. daily 1 month, vs vehicle, FIG. 2F) was “spend more time on searching the platform in the target quadrant”, the recognition index [9] was “significantly elevates” and the “short-term memory, performance on novel object recognition test” value [10] was “completely reverse the memory deficit”. For the same molecule, the “error to find the target hole, probe trial” value ([11]; FIG. 1E) was “reduces the error to find the target hole”, the “time spent in target quadrant, probe trial” value ([11]; FIG. 1F) was “markedly increases the time spent in target quadrant” and the “latency to get into the hidden escape box (long-term spatial memory)” value ([11]; day 25 post injection, FIG. 1D) was “completely reverses the STZ-induced long-term memory deficits”. The “intensity of Iba-1-positive microglia, hippocampal CA1 region” value ([12]; VUF6002 2.5 mg/kg 3 months, FIG. 5A) was “markedly reduces the intensity of Iba-1-positive”, the “density of microglia, hippocampal CA1 region” value ([12]; VUF6002 2.5 mg/kg, FIG. 5B) was “significantly reduces the density of microglia” and the “spontaneous alternation rate (short-term spatial working memory)” value [13] was “completely reversed”. The “mean intensity of AT8 (p-Tau), CA1 region of hippocampus” value ([14]; VUF6002 2.5 mg/kg 3 months, FIG. 4C-4D) was “markedly reduces the mean intensity of AT8”.
With `C[C@@H]1C[C@H]2[C@@H]3CCC4=CC(=O)C=C[C@]4(C)[C@@]3(F)[C@@H](O)C[C@]2(C)[C@@]1(O)C(=O)CO` [dexamethasone, (11β,16α)-9-Fluoro-11,17,21-trihydroxy-16-methylpregna-1,4-diene-3,20-dione] the “spontaneous alternation rate (short-term spatial working memory)” value ([5]; dexamethasone 1 mg/kg i.p. two months, FIG. 6A) was “prominently improves the short-term memory deficits”, the “escape latency to find the hidden platform” value ([8]; dexamethasone 1 mg/kg i.p. one month, vs vehicle) was “does not significantly reduce the latency” and the “escape latency to find the hidden platform” value ([8]; dexamethasone 1 mg/kg i.p. two months) was “reverses the long-term memory deficits”. The “number of platform crosses, probe test” value ([8]; dexamethasone 1 mg/kg i.p. two months, vs vehicle, FIG. 6D) was “conspicuously increased number of platform crosses”, the “time spent … probe test” value ([8]; dexamethasone 1 mg/kg i.p. two months, vs vehicle, FIG. 6E) was “conspicuously increased” and the “reduction of phosphorylated Tau (AT8) intensity, hippocampal subiculum area” value ([14]; dexamethasone from 14- to 17-month-old, FIG. 7C-7D) was 53.3%.
